Measured values from patent publication US20060079453A1, “Hla binding peptides and their uses” (priority 2002, published 2006).
No end group written: not given here.

Key:
Experiment in all cases: biochemical
Type in all cases: binding
[1] = biological target: HLA-A*1101 (Homo sapiens, UniProt P04439, A114D/D185E/E176A/F33Y/L180Q/S129P/T187R)
[2] = biological target: HLA-A*3301 (Homo sapiens, UniProt P04439, A270S/D185E/E176V/E277Q/E87N/F33T/G231S/H175R/I121M/I218V/I322F/K168Q/K210R/L300P/L318F/M331R/P217A/Q86R/Q94H/R138Q/T323A/T345S/T97I/V358M/Y195H)
[3] = biological target: HLA-A*3101 (Homo sapiens, UniProt P04439, A270S/D185E/E176V/E277Q/F33T/G231S/G80R/H175R/I121M/I218V/I322F/K168Q/L300P/L318F/M331R/P217A/Q94H/R138Q/T323A/T345S/T97I/V358M)
[4] = biological target: HLA-A*6801 (Homo sapiens, UniProt P04439, A269V/D185E/E176V/E277Q/E87N/F33Y/G231S/I121M/I166T/I218V/L180W/L300P/L318F/N151K/P208A/P217A/Q86R/R169H/T345S)
[5] = biological target: HLA-A*0301 (Homo sapiens, UniProt P04439)

Sequence of HLA-A*1101 (P04439 25-365 limits assumed, stated change not applied): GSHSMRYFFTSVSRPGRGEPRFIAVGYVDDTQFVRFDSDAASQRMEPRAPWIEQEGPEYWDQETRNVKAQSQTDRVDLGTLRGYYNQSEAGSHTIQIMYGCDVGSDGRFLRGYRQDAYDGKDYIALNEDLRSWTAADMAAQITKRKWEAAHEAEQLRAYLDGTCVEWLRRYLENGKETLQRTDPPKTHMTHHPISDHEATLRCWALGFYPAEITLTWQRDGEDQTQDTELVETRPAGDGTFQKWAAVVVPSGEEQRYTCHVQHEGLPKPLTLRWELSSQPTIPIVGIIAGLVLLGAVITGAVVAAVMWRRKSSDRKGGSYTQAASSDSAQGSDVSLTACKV

Sequence	IC50 [1] [µM]	IC50 [2] [µM]	IC50 [3] [µM]	IC50 [4] [µM]	IC50 [5] [µM]
AFCWRPRRR	17.9	0.075	0.06	1.09	0.273
ALERLLSLK	0.369	12.8	3.43	13.7	0.233
ALKISQLQK	0.096	23.8	3.2	> 54.8	0.015
ALNAAAAAK	0.021	> 72.5	11	80	0.074
ALQAAAAAK	0.065	> 72.5	52	> 80	0.057
AVADLTVVYR	0.011	0.892	0.031	0.0073	0.489
AVIFTPIYY	0.0095	10.1	42.3	1.35	0.025
AVKDLCIVYR	0.066	0.008	0.0073	0.0065	0.841
AVKDLFVVYR	0.091	0.0091	0.0031	0.0033	1.73
AVPGGYPRRK	0.06	> 5.57	40	0.846	0.819
DTIPHAACHK	0.701	0.0093	1.76	0.023	2.37
DTLEQTLKR	12.9	0.0092	38.1	0.11	31.3
DTVYGDTLEK	0.015	55.1	28.8	0.031	0.05
ELTEVFEFAFK	0.582	1.73	25.2	0.015	8.97
ETNPFGICK	0.1	0.804	29.1	0.014	9.59
ETVRHFPR	4.18	0.081	1	0.086	> 13.5
EVLEIPLIDLR	16.6	0.072	36.4	0.027	> 47
EVYNFACTELK	0.117	0.0059	0.484	0.0027	1.62
FAFADLTVVY	5.87	26.8	23.7	0.402	18.6
FISFYLINK	0.009	1.46	2.19	0.018	0.019
FLYLLNKKNK	0.475	0.78	4.31	0.155	0.177
FVVYRDSIPK	0.081	0.146	6.22	0.03	0.265
GFNHQHLPAR	27.9	5.57	0.173	34.6	> 46.6
GTGISYGRK	0.077	> 43.7	58.1	7.41	0.48
GTMYILLKK	0.0012	8.45	0.029	0.0031	0.0022
GTRQARRNK	0.749	46	9.71	59.7	0.067
GTRQARRNRK	0.634	> 42.3	3.8	7.79	0.1
GTTLESITKK	0.108	133	85.2	10.1	0.622
GVDGLIYSK	0.047	> 29.7	> 17.7	5.1	10.1
